# In PubChem BioAssay AID1963846 (Molecular Pharmacology Branch, DTP, NCI, 2024):
# pIC50: −log10 of the molar value.
# Test system: 454973-116-R2-J3-PDC complex spheroid viability
# Experiment: Anticancer human tumor 454973-116-R2-J3-PDC patient-derived pancreatic carcinoma cell line growth inhibition [POLQ]
# Conditions: for pIC50: curve of first compound; for viability, T/C: stronger effect = lower value
# Outline: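 Three-cell-type spheroids modelling solid tumor plus stroma served as the readout system; POL inhibitors were tested individually and in combination, concentration ranges set by clinical Cmax where known.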
# [1] = second compound 0.0316 µM, first compound 0.0316 µM
# [2] = second compound 0.0316 µM, first compound 0.1 µM
# [3] = second compound 0.0316 µM, first compound 0.316 µM
# [4] = second compound 0.0316 µM, first compound 1 µM
# [5] = second compound 0.0316 µM, first compound 3.16 µM
# [6] = second compound 0.0316 µM, first compound 10 µM
# [7] = second compound 0.1 µM, first compound 0.0316 µM
# [8] = second compound 0.1 µM, first compound 0.1 µM
# [9] = second compound 0.1 µM, first compound 0.316 µM
# [10] = second compound 0.1 µM, first compound 1 µM
# [11] = second compound 0.1 µM, first compound 3.16 µM
# [12] = second compound 0.1 µM, first compound 10 µM
# [13] = second compound 0.316 µM, first compound 0.0316 µM
# [14] = second compound 0.316 µM, first compound 0.1 µM
# [15] = second compound 0.316 µM, first compound 0.316 µM
# [16] = second compound 0.316 µM, first compound 1 µM
# [17] = second compound 0.316 µM, first compound 3.16 µM
# [18] = second compound 0.316 µM, first compound 10 µM
# [19] = second compound 1 µM, first compound 0.0316 µM
# [20] = second compound 1 µM, first compound 0.1 µM
# [21] = second compound 1 µM, first compound 0.316 µM
# [22] = second compound 1 µM, first compound 1 µM
# [23] = second compound 1 µM, first compound 3.16 µM
# [24] = second compound 1 µM, first compound 10 µM
# [25] = second compound 3.16 µM, first compound 0.0316 µM
# [26] = second compound 3.16 µM, first compound 0.1 µM
# [27] = second compound 3.16 µM, first compound 0.316 µM
# [28] = second compound 3.16 µM, first compound 1 µM
# [29] = second compound 3.16 µM, first compound 3.16 µM
# [30] = second compound 3.16 µM, first compound 10 µM
# [31] = second compound 10 µM, first compound 0.0316 µM
# [32] = second compound 10 µM, first compound 0.1 µM
# [33] = second compound 10 µM, first compound 0.316 µM
# [34] = second compound 10 µM, first compound 1 µM
# [35] = second compound 10 µM, first compound 3.16 µM
# [36] = second compound 10 µM, first compound 10 µM
# 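Also: spheroids exposed to drugs for seven days before measurement.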
# 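For viability, T/C in this document: percent viability relative to DMSO vehicle control wells taken as 100%.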
structure (smiles),measurement,setting,value
CC1COCCN1c1cc(C2(O)CC3CCC(C2)O3)c2cnn(-c3ccn[nH]3)c2n1 (stereo not drawn) + COC1C(OC(N)=O)C(O)C(Oc2ccc3c(O)c(NC(=O)c4ccc(O)c(CC=C(C)C)c4)c(=O)oc3c2C)OC1(C)C,pIC50,second compound 0.0316 µM,6.69
same,pIC50,second compound 0.1 µM,6.63
same,pIC50,second compound 0.316 µM,6.65
same,pIC50,second compound 1 µM,6.71
same,pIC50,second compound 3.16 µM,6.71
same,pIC50,second compound 10 µM,6.66
same,"viability, T/C",[1],104%
same,"viability, T/C",[2],74.1%
same,"viability, T/C",[3],35.3%
same,"viability, T/C",[4],22.1%
same,"viability, T/C",[5],25.1%
same,"viability, T/C",[6],15.6%
same,"viability, T/C",[7],93.2%
same,"viability, T/C",[8],76.9%
same,"viability, T/C",[9],39.6%
same,"viability, T/C",[10],24.4%
same,"viability, T/C",[11],22.2%
same,"viability, T/C",[12],15.8%
same,"viability, T/C",[13],100%
same,"viability, T/C",[14],75.6%
same,"viability, T/C",[15],40.6%
same,"viability, T/C",[16],18.9%
same,"viability, T/C",[17],25.8%
same,"viability, T/C",[18],18.4%
same,"viability, T/C",[19],102%
same,"viability, T/C",[20],69.6%
same,"viability, T/C",[21],37.8%
same,"viability, T/C",[22],18.7%
same,"viability, T/C",[23],21.4%
same,"viability, T/C",[24],20.1%
same,"viability, T/C",[25],104%
same,"viability, T/C",[26],73.5%
same,"viability, T/C",[27],32.6%
same,"viability, T/C",[28],19.3%
same,"viability, T/C",[29],24.1%
same,"viability, T/C",[30],17.6%
same,"viability, T/C",[31],94.6%
same,"viability, T/C",[32],68.4%
same,"viability, T/C",[33],42.3%
same,"viability, T/C",[34],21.5%
same,"viability, T/C",[35],25.8%
same,"viability, T/C",[36],15%
CC(=O)O[C@H]1C(=O)[C@@]2(C)[C@H]([C@H](OC(=O)c3ccccc3)[C@]3(O)C[C@H](OC(=O)[C@H](O)[C@@H](NC(=O)c4ccccc4)c4ccccc4)C(C)=C1C3(C)C)[C@]1(OC(C)=O)CO[C@@H]1C[C@@H]2O + Cc1cccc(N(C)C(=O)C2C(O)CCN2c2nc(C)cc(C(F)(F)F)c2C#N)c1,pIC50,second compound 0.0316 µM,> 8.02
same,pIC50,second compound 0.1 µM,> 8.02
same,pIC50,second compound 0.316 µM,> 8.02
same,pIC50,second compound 1 µM,> 8.02
same,pIC50,second compound 3.16 µM,> 8.02
same,pIC50,second compound 10 µM,> 8.02
same,"viability, T/C","second compound 0.0316 µM, first compound 0.00949 µM",5.9%
same,"viability, T/C","second compound 0.0316 µM, first compound 0.03 µM",5.78%
same,"viability, T/C","second compound 0.0316 µM, first compound 0.0949 µM",4.79%
same,"viability, T/C","second compound 0.0316 µM, first compound 0.3 µM",5.44%
same,"viability, T/C","second compound 0.0316 µM, first compound 0.949 µM",6.64%
same,"viability, T/C","second compound 0.0316 µM, first compound 3 µM",4.88%
same,"viability, T/C","second compound 0.1 µM, first compound 0.00949 µM",7.63%
same,"viability, T/C","second compound 0.1 µM, first compound 0.03 µM",5.67%
same,"viability, T/C","second compound 0.1 µM, first compound 0.0949 µM",4.39%
same,"viability, T/C","second compound 0.1 µM, first compound 0.3 µM",5.55%
same,"viability, T/C","second compound 0.1 µM, first compound 0.949 µM",5.21%
same,"viability, T/C","second compound 0.1 µM, first compound 3 µM",5.24%
same,"viability, T/C","second compound 0.316 µM, first compound 0.00949 µM",7.72%
same,"viability, T/C","second compound 0.316 µM, first compound 0.03 µM",6.78%
same,"viability, T/C","second compound 0.316 µM, first compound 0.0949 µM",5.34%
same,"viability, T/C","second compound 0.316 µM, first compound 0.3 µM",4.54%
same,"viability, T/C","second compound 0.316 µM, first compound 0.949 µM",4.69%
same,"viability, T/C","second compound 0.316 µM, first compound 3 µM",5.5%
same,"viability, T/C","second compound 1 µM, first compound 0.00949 µM",7.85%
same,"viability, T/C","second compound 1 µM, first compound 0.03 µM",5.01%
same,"viability, T/C","second compound 1 µM, first compound 0.0949 µM",5.19%
same,"viability, T/C","second compound 1 µM, first compound 0.3 µM",5.01%
same,"viability, T/C","second compound 1 µM, first compound 0.949 µM",5.7%
same,"viability, T/C","second compound 1 µM, first compound 3 µM",4.36%
same,"viability, T/C","second compound 3.16 µM, first compound 0.00949 µM",6.74%
same,"viability, T/C","second compound 3.16 µM, first compound 0.03 µM",5.6%
same,"viability, T/C","second compound 3.16 µM, first compound 0.0949 µM",5.28%
same,"viability, T/C","second compound 3.16 µM, first compound 0.3 µM",4.99%
same,"viability, T/C","second compound 3.16 µM, first compound 0.949 µM",5.45%
same,"viability, T/C","second compound 3.16 µM, first compound 3 µM",4.91%
same,"viability, T/C","second compound 10 µM, first compound 0.00949 µM",6.83%
same,"viability, T/C","second compound 10 µM, first compound 0.03 µM",5.22%
same,"viability, T/C","second compound 10 µM, first compound 0.0949 µM",5.42%
same,"viability, T/C","second compound 10 µM, first compound 0.3 µM",5.06%
same,"viability, T/C","second compound 10 µM, first compound 0.949 µM",4.84%
same,"viability, T/C","second compound 10 µM, first compound 3 µM",5.41%
COc1cccc2c1C(=O)c1c(O)c3c(c(O)c1C2=O)CC(O)(C(=O)CO)CC3OC1CC(N)C(O)C(C)O1 (stereo not drawn) + Cc1cccc(N(C)C(=O)C2C(O)CCN2c2nc(C)cc(C(F)(F)F)c2C#N)c1,pIC50,second compound 0.0316 µM,7.22
same,pIC50,second compound 0.1 µM,7.20
same,pIC50,second compound 0.316 µM,7.21
same,pIC50,second compound 1 µM,7.22
same,pIC50,second compound 3.16 µM,7.31
same,pIC50,second compound 10 µM,7.26
same,"viability, T/C",[1],72.9%
same,"viability, T/C",[2],25.9%
same,"viability, T/C",[3],22.1%
same,"viability, T/C",[4],10.9%
same,"viability, T/C",[5],0.31%
same,"viability, T/C",[6],0.23%
same,"viability, T/C",[7],71.8%
same,"viability, T/C",[8],29.3%
same,"viability, T/C",[9],26.9%
same,"viability, T/C",[10],8.87%
same,"viability, T/C",[11],1.7%
same,"viability, T/C",[12],0.22%
same,"viability, T/C",[13],70.3%
same,"viability, T/C",[14],30.2%
same,"viability, T/C",[15],24.2%
same,"viability, T/C",[16],9.69%
same,"viability, T/C",[17],0.35%
same,"viability, T/C",[18],0.28%
same,"viability, T/C",[19],67.8%
same,"viability, T/C",[20],30.9%
same,"viability, T/C",[21],26.6%
same,"viability, T/C",[22],9.52%
same,"viability, T/C",[23],0.41%
same,"viability, T/C",[24],0.32%
same,"viability, T/C",[25],56.3%
same,"viability, T/C",[26],38.4%
same,"viability, T/C",[27],25.6%
same,"viability, T/C",[28],6.92%
same,"viability, T/C",[29],0.38%
same,"viability, T/C",[30],0.33%
same,"viability, T/C",[31],63.8%
same,"viability, T/C",[32],33%
same,"viability, T/C",[33],22%
same,"viability, T/C",[34],7.02%
same,"viability, T/C",[35],0.38%
same,"viability, T/C",[36],0.49%
O=c1[nH]cc(F)c(=O)[nH]1 + Cc1cccc(N(C)C(=O)C2C(O)CCN2c2nc(C)cc(C(F)(F)F)c2C#N)c1,pIC50,second compound 0.0316 µM,5.53
same,pIC50,second compound 0.1 µM,5.57
same,pIC50,second compound 0.316 µM,5.59
same,pIC50,second compound 1 µM,5.59
same,pIC50,second compound 3.16 µM,5.60
same,pIC50,second compound 10 µM,5.60
same,"viability, T/C",[1],99.3%
same,"viability, T/C",[2],104%
same,"viability, T/C",[3],98.1%
same,"viability, T/C",[4],104%
same,"viability, T/C",[5],46.3%
same,"viability, T/C",[6],30.7%
same,"viability, T/C",[7],109%
same,"viability, T/C",[8],108%
same,"viability, T/C",[9],111%
same,"viability, T/C",[10],102%
same,"viability, T/C",[11],41.1%
same,"viability, T/C",[12],33.1%
same,"viability, T/C",[13],107%
same,"viability, T/C",[14],115%
same,"viability, T/C",[15],123%
same,"viability, T/C",[16],96.9%
same,"viability, T/C",[17],40.1%
same,"viability, T/C",[18],37%
same,"viability, T/C",[19],119%
same,"viability, T/C",[20],112%
same,"viability, T/C",[21],112%
same,"viability, T/C",[22],95%
same,"viability, T/C",[23],40%
same,"viability, T/C",[24],31.6%
same,"viability, T/C",[25],116%
same,"viability, T/C",[26],118%
same,"viability, T/C",[27],108%
same,"viability, T/C",[28],93.4%
same,"viability, T/C",[29],38.9%
same,"viability, T/C",[30],32%
same,"viability, T/C",[31],116%
same,"viability, T/C",[32],108%
same,"viability, T/C",[33],104%
same,"viability, T/C",[34],92.2%
same,"viability, T/C",[35],39.6%
same,"viability, T/C",[36],30.9%
